Test results reported in ChEMBL document CHEMBL1148078, “Isolation of Spongosine and 2'-Deoxyspongosine from a Western Australian Sponge of the Order Hadromerida (Tethyidae)” (J Nat Prod, 1994).
Calls of active or inactive are those of the source.

Key:
Type in all cases: functional, organism-based
Staphylococcus aureus = assay: Antimicrobial activity against Staphylococcus aureus at 200 ug/disk by disk diffusion assay
Candida albicans = assay: Antimicrobial activity against Candida albicans at 200 ug/disk by disk diffusion assay
Escherichia coli = assay: Antimicrobial activity against Escherichia coli at 200 ug/disk by disk diffusion assay
Pseudomonas aeruginosa = assay: Antimicrobial activity against Pseudomonas aeruginosa at 200 ug/disk by disk diffusion assay
[1] = tested on: Saccharomyces pastorianus; assay: Antimicrobial activity against Saccharomyces carlsbergensis at 200 ug/disk by disk diffusion assay

Measured: Activity

COc1nc(N)c2ncn([C@@H]3O[C@H](CO)[C@@H](O)[C@H]3O)c2n1
inactive: all assays above

COc1nc(N)c2ncn([C@H]3C[C@H](O)[C@@H](CO)O3)c2n1
inactive: all assays above
